The values that follow come from patent US7943628B2, “Pyrimidine derivatives” (Pfizer Limited, priority 2005, dated 2011).

The target of assay [1] is T1, histamine H4 receptor (Homo sapiens, UniProt Q9H3N8).
T1 construct: expressed in transfected cells; host or cells: CHO cells
The experiment in a line: H4 binding, method 1 ([3H]-histamine filtration binding on CHO cell membranes). To be noted: H4 binding, method 1; Ki calculated from IC50 (Cheng-Prussoff). The method, boiled down: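 Membranes from CHO cells expressing human H4 receptor (20-35 μg/well) incubated 90 min at room temperature with 3 nM [3H]-histamine in 50 mM Tris-HCl pH 7.4, ± competitor. Bound label separated by filtration on PEI-soaked GF/B filters and counted by scintillation; non-specific binding with 10 μM JNJ7777120.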

For assay [2], the target named is T1, histamine H4 receptor. The experiment in a line: H4 binding, method 2 ([3H]-histamine binding with Ysi WGA beads on CHO cell membranes). The conditions noted are these: H4 binding, method 2, Ki calculated from IC50 (Cheng-Prussoff). In a few lines:
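Membranes from H4-expressing CHO cells were pre-bound to WGA SPA beads, then incubated 90 min at room temperature with 6.5 nM [3H]-histamine in 50 mM Tris-HCl pH 7.4, with or without competitor. Non-specific binding defined with 10 μM JNJ7777120; bound label read by scintillation counting.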

A value given as a limit tells only on which side of the number the result lay.

T1 sequence (Q9H3N8 whole entry): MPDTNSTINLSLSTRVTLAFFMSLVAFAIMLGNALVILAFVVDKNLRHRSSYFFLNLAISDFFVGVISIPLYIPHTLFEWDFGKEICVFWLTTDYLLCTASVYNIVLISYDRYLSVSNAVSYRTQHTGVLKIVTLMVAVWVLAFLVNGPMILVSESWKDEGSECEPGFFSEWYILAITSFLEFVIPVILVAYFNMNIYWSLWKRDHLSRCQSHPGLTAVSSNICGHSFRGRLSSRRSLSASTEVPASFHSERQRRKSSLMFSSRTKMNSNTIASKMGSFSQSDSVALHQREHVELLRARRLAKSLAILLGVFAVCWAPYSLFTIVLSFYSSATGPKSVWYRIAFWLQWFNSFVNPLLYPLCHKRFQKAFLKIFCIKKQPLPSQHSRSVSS

Take `CN[C@@H]1CCN(c2cc(NCC3CC3)nc(N)n2)C1` [Example 9, N^4-(Cyclopropylmethyl)-6-[(3R)-3-(methylamino)pyrrolidin-1-yl]pyrimidine-2,4-diamine]: the results for the Ki at histamine H4 receptor [1] and on histamine H4 receptor [2] (read-out: Method 2 (Ki (nM))) were 2.7 nM and 19.3 nM, respectively.

As for `CN[C@@H]1CCN(c2cc(NCC(C)(C)C)nc(N)n2)C1` [Example 11, N^4-(2,2-Dimethylpropyl)-6-[(3R)-3-(methylamino)pyrrolidin-1-yl] pyrimidine-2,4-diamine], the Ki was 10.6 nM on histamine H4 receptor [1] and 31.6 nM on histamine H4 receptor [2] (read-out: Method 2 (Ki (nM))).

In the case of `CN[C@@H]1CCN(c2cc(NCC(C)C)ncn2)C1` [Example 14, N-Isobutyl-6-[(3R)-3-(methyl-amino)pyrrolidin-1-yl]pyrimidin-4-amine], the Ki at histamine H4 receptor [1] was 13.6 nM; on histamine H4 receptor [2] (read-out: Method 2 (Ki (nM))), 23.3 nM.

In the case of `CC(C)CNc1cc(N2CC[C@@H](N(C)C)C2)ncn1` [Example 20, 6-[(3R)-3-(Dimethylamino)pyrrolidin-1-yl]-N-isobutyl-pyrimidin-4-amine], the results for the Ki at histamine H4 receptor [1] and on histamine H4 receptor [2] (read-out: Method 2 (Ki (nM))) were 30.5 nM and 58.1 nM, respectively.

`CN(C)[C@@H]1CCN(c2cc(NCC(C)(C)C)ncn2)C1` [Example 22, 6-[(3R)-3-(Dimethylamino)pyrrolidin-1-yl]-N-(2,2-dimethylpropyl)pyrimidin-4-amine]: the Ki was 58.9 nM on histamine H4 receptor [1] and 59.3 nM at histamine H4 receptor [2] (read-out: Method 2 (Ki (nM))).

For the compound `CNC1CN(c2cc(NCC(C)C)ncn2)C1` [Example 49, N-Isobutyl-6-[3-(methylamino)azetidin-1-yl]pyrimidin-4-amine], the Ki at histamine H4 receptor [1] is 10.7 nM; on histamine H4 receptor [2] (read-out: Method 2 (Ki (nM))) it was 29.9 nM.

`CNC1CN(c2cc(NCCC(C)(C)C)ncn2)C1` [Example 59, N-(3,3-Dimethylbutyl)-6-[3-(methylamino)azetidin-1-yl]pyrimidin-4-amine]: the Ki on histamine H4 receptor [1] is 37.7 nM; at histamine H4 receptor [2] (read-out: Method 2 (Ki (nM))), 59.2 nM.

`CNC1CN(c2cc(NC(C)C)nc(N)n2)C1` [Example 60, N^4-Isopropyl-6-(3-methylamino-azetidin-1-yl)-pyrimidine-2,4-diamine]: the Ki is 3.57 nM at histamine H4 receptor [1] and 28.8 nM on histamine H4 receptor [2] (read-out: Method 2 (Ki (nM))).

Regarding `CNC1CN(c2cc(NCC(C)(C)C)nc(N)n2)C1` [Example 61, N^4-(2,2-Dimethylpropyl)-6-[3-(methylamino)azetidin-1-yl]pyrimidine-2,4-diamine], the Ki on histamine H4 receptor [1] was 1.66 nM; on histamine H4 receptor [2] (read-out: Method 2 (Ki (nM))) it was 1.33 nM.

As for `CNC1CN(c2cc(NCCC(F)(F)F)nc(N)n2)C1` [Example 62, 6-(3-Methylamino-azetidin-1-yl)-N^4-(3,3,3-trifluoro-propyl)-pyrimidine-2,4-diamine], the figures for the Ki on histamine H4 receptor [1] and on histamine H4 receptor [2] (read-out: Method 2 (Ki (nM))) were 8.94 nM and 14.1 nM, respectively.

As to `CNC1CN(c2cc(NCC3CC3)nc(N)n2)C1` [Example 63, N^4-Cyclopropylmethyl-6-(3-methylamino-azetidin-1-yl)-pyrimidine-2,4-diamine], the Ki at histamine H4 receptor [1] was 1.95 nM; at histamine H4 receptor [2] (read-out: Method 2 (Ki (nM))), 12.2 nM.

As to `CNC1CN(c2cc(NCCC(C)(C)C)nc(N)n2)C1` [Example 64, N^4-(3,3-Dimethyl-butyl)-6-(3-methylamino-azetidin-1-yl)-pyrimidine-2,4-diamine], the Ki is 4.63 nM on histamine H4 receptor [1] and 4.43 nM on histamine H4 receptor [2] (read-out: Method 2 (Ki (nM))).

Turning to `CNC1CN(c2cc(NCc3cccc(F)c3)nc(N)n2)C1` [Example 65, N^4-(3-Fluoro-benzyl)-6-(3-methylamino-azetidin-1-yl)-pyrimidine-2,4-diamine], the Ki at histamine H4 receptor [1] was 17.5 nM; at histamine H4 receptor [2] (read-out: Method 2 (Ki (nM))), 19.8 nM.

Take `CNC1CN(c2cc(NCC3CCC3)nc(N)n2)C1` [Example 67, N^4-Cyclobutylmethyl-6-(3-methylamino-azetidin-1-yl)-pyrimidine-2,4-diamine]: the figures for the Ki at histamine H4 receptor [1] and on histamine H4 receptor [2] (read-out: Method 2 (Ki (nM))) were 0.278 nM and 1.6 nM, respectively.

`CNC1CN(c2cc(NCC3CCCC3)nc(N)n2)C1` [Example 68, N^4-Cyclopentylmethyl-6-(3-methylamino-azetidin-1-yl)-pyrimidine-2,4-diamine]: the values for the Ki at histamine H4 receptor [1] and at histamine H4 receptor [2] (read-out: Method 2 (Ki (nM))) were 0.979 nM and 6.26 nM, respectively.

For `CNC1CN(c2cc(NCC(C)C)nc(N)n2)C1` [Example 71, N^4-Isobutyl-6-[3-(methylamino)azetidin-1-yl]pyrimidine-2,4-diamine], the figures for the Ki at histamine H4 receptor [1] and at histamine H4 receptor [2] (read-out: Method 2 (Ki (nM))) were 1.29 nM and 14 nM, respectively.

For `CNC1CN(c2cc(NCCC(C)C)nc(N)n2)C1` [Example 74, 6-[3-(Methylamino)azetidin-1-yl]-N^4-(3-methylbutyl)pyrimidine-2,4-diamine], the figures for the Ki at histamine H4 receptor [1] and on histamine H4 receptor [2] (read-out: Method 2 (Ki (nM))) were 0.58 nM and 16.8 nM, respectively.

In the case of `CN1CCN(c2cc(NCC(C)(C)C)ncn2)CC1` [Example 99, N-(2,2-Dimethylpropyl)-6-(4-methylpiperazin-1-yl)pyrimidin-4-amine], the figures for the Ki on histamine H4 receptor [1] and at histamine H4 receptor [2] (Method 2 (Ki (nM))) were 23.6 nM and 38.1 nM, respectively.

As for `CC(C)(C)CCNc1cc(N2CCNCC2)ncn1` [Example 111, N-(3,3-Dimethylbutyl)-6-piperazin-1-ylpyrimidin-4-amine], the Ki on histamine H4 receptor [1] was 201 nM; on histamine H4 receptor [2] (read-out: Method 2 (Ki (nM))), 1800 nM.

In the case of `CC(C)Nc1cc(N2CCN(C)CC2)nc(N)n1` [Example 119, N^4-Isopropyl-6-(4-methylpiperazin-1-yl)pyrimidine-2,4-diamine], the Ki at histamine H4 receptor [1] is 3.44 nM; on histamine H4 receptor [2] (Method 2 (Ki (nM))) it was 7.8 nM.

Turning to `CCNc1cc(N2CCN(C)CC2)nc(N)n1` [Example 120, N^4-Ethyl-6-(4-methylpiperazin-1-yl)pyrimidine-2,4-diamine], the Ki on histamine H4 receptor [1] was 4.89 nM; on histamine H4 receptor [2] (Method 2 (Ki (nM))), 11.2 nM.

Turning to `CC(C)CNc1cc(N2CCN(C)CC2)nc(N)n1` [Example 121, N^4-Isobutyl-6-(4-methylpiperazin-1-yl)pyrimidine-2,4-diamine], the figures for the Ki at histamine H4 receptor [1] and on histamine H4 receptor [2] (Method 2 (Ki (nM))) were 2.18 nM and 6.64 nM, respectively.

`CN1CCN(c2cc(NCC3CC3)nc(N)n2)CC1` [Example 122, N^4-(Cyclopropylmethyl)-6-(4-methylpiperazin-1-yl)pyrimidine-2,4-diamine]: the Ki on histamine H4 receptor [1] is 3.65 nM; on histamine H4 receptor [2] (Method 2 (Ki (nM))) it was 8.65 nM.

In the case of `CCN1CCN(c2cc(NCCC(C)(C)C)ncn2)CC1` [Example 270, N-(3,3-Dimethylbutyl)-6-(4-ethylpiperazin-1-yl)pyrimidin-4-amine], the Ki was 839 nM at histamine H4 receptor [1] and greater than 16200 nM on histamine H4 receptor [2] (read-out: Method 2 (Ki (nM))).

`CN1CCC(N(C)c2cc(NCCC(C)(C)C)ncn2)CC1` [Example 279, N′-(3,3-Dimethylbutyl)-N-methyl-N-(1-methylpiperidin-4-yl)pyrimidine-4,6-diamine]: the Ki was 1370 nM on histamine H4 receptor [1] and greater than 9130 nM on histamine H4 receptor [2] (read-out: Method 2 (Ki (nM))).
